This is an account of results in US4731363A, “Thromboxane synthase inhibitors as insulin lowering agents and antiobesity agents” (priority 1986, dated 1988).

Molecules are shown by their SMILES. “And” between values parts separate entries of the source, which are not always exact repeats. Identical values can stand only once. Counter-ions that a name gives are not always drawn.

The target of one experiment is T1, thromboxane synthase (Guinea Pig Lung Microsomes) (Cavia porcellus, UniProt H0UT36).
T1 construct: The lungs were removed, freed of trachea and the majority of blood removed by rinsing the lungs with buffer; from tissue; host or cells: lungs of male guinea pigs (microsomes, 110,000 g pellet)
T1 sequence (H0UT36 entry or part of it): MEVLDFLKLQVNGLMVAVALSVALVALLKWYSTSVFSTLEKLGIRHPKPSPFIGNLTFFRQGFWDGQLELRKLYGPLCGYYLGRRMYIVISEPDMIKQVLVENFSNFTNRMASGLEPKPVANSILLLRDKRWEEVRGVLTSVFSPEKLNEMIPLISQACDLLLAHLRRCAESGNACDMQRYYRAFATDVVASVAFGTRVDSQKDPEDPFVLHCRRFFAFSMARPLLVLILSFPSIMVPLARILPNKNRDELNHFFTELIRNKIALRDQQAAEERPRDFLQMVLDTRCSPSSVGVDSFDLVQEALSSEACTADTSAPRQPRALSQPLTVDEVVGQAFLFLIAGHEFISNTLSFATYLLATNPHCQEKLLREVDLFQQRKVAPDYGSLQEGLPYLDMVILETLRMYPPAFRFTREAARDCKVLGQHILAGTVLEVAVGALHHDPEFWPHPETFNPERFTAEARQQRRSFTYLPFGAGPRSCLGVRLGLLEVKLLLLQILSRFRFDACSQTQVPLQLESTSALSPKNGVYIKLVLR
Nature of the experiment: biochemical. Particulars: IC50, enzyme source G = Guinea Pig Lung Microsomes. As for the experimental part:
In said assay procedure, microsomes from guinea pig lung or human platelets are added to an endoperoxide intermediate in prostaglandin biosynthesis and the inhibitor in phosphate buffer solution followed by incubation, extraction and determination of the extent of thromboxane synthase inhibition by TLC with radiochromatographic profile analysis. […]
Isolation of Guinea Pig Lung Microsomes
Four male guinea pigs (.congruent.500 g each) were sacrificed by spinal dislocation. The lungs were removed, freed of trachea and the majority of blood removed by rinsing the lungs with buffer (0.1M phosphate pH 7.5) via the pulmonary artery. The lung tissue (18.3 g total wet wt.), was then minced, suspended in three volumes of buffer and homogenized using, initially, a Brinkmann polytron homogenizer and, finally, a glass-teflon tissue grinder. The homogenate was centrifuged at 12,000 g for 1 hr. and the resultant supernatant recentrifuged at 110,000 g for 1 hr. The 110,000 g pellet was taken up in 10 ml of buffer, divided into 5×2 ml aliquots and stored at -70° until use.
(§1) Low specific activity PGH2 (3.3 μCi/μmole) was obtained from Dr. W. E. M. Lands of the University of Michigan. PGH2 of higher specific activity (16.0 μCi/μmole) was purchased from Ran Biochemicals, Tel-Aviv, Israel.
(§2) The inhibitors tested were prepared as solutions (1-10 mg/ml) in 95% ethanol.
(§3) Assay for Thromboxane Synthase
(§4) To a 12×75 mm tube containing [1-^14 C] PGH2 (2 μg, 0.01 μCi or 0.05 μCi) and inhibitor (1 mM final assay concentration, in 10 μl of ethanol) in 225 μl of phosphate buffer (0.1M, pH 7.5), was added to an aliquot of guinea pig lung microsomes (25 μl, containing 400 μg protein) or an aliquot of human platelet microsomes (25 μl, containing .congruent.[…] protein). The solution was incubated in a 22° water bath for 2 min.; ether (1 ml) and citric acid (25 μMoles) were added, and the tube plunged into an acetone-dry ice bath. The ether extract was transferred to a 1.0 ml Reacti-vial, and the volume reduced under nitrogen to .congruent.50 μl.
(§5) The extract was applied to an I.T.L.C., type SG, glass fiber sheet (Gelman Instrument Co., Ann Arbor, Mich.) and developed in isooctane; methyl ethyl ketone: acetic acid (100:19:1 or 100:9:1) (19). The sheets were air dried and scanned using a Berthold LB 2760 Radiochromatographic Scanner. In certain cases, based on the radiochromatographic profile obtained, the sheets were cut, the appropriate regions placed in scintillation vials, 10 ml of LSC cocktail (Yorktown Research, S. Hackensack, NJ) added, and the relative cpm determined.
A word on the IC50: it is the concentration that gives 50% inhibition. Molecule `O=C1C(CC[S+]([O-])c2ccccc2)C(=O)N(c2ccccc2)N1c1ccccc1` (centres unmarked) [1,2-diphenyl-4-[2-[phenylsulfinyl]ethyl]-3,5-pyrazo-lidinedione, reference compound] displayed an IC50 of roughly 1000 µM.
Still for that read-out and setting: for `O=[N+]([O-])c1ccc(-n2ccnc2)c([N+](=O)[O-])c1` [1-[2,4-dinitrophenyl]1H--imidazole] the value was > 100 µM and < 1000 µM.
The same measure, in the same setting: for `CCn1ccnc1` [1-ethyl-1H--imidazole] the value was greater than 1000 µM; for `Nc1cncc(C(=O)O)c1` [5-amino-3-pyridinecarboxylic acid], greater than 1000 µM.

The experiment is the same for the next values; noted with them: enzyme source G = Guinea Pig Lung Microsomes; read-out: IC50.
As for `COc1ccc2c(c1)c(CC(=O)O)c(C)n2C(=O)c1ccc(Cl)cc1` [1-(4-chlorobenzoyl)-5-methoxy-2-methyl-1H--indole-3-acetic acid, reference compound], the IC50 is > 100 µM and < 1000 µM.
On the same count and under the same terms, next, `O=[N+]([O-])c1ccc(-n2ccnc2)cc1` [1-(4-nitrophenyl)-1H--imidazole]: > 100 µM and < 1000 µM.
Still for that read-out and setting: for `Cn1ccnc1` [1-methyl-1H--imidazole] the value was greater than 1000 µM.
Still for that read-out and setting: for `O=[N+]([O-])c1c[nH]cn1` [1H-- 4-nitroimidazole] the value was greater than 1000 µM; for `COC(=O)C=Cc1c[nH]cn1` [3-(1H--imidazole-4-yl)-2-propenoic acid methyl ester], > 100 µM and < 1000 µM.
Consider `O=C1c2ccccc2S(=O)(=O)c2cc(-c3nnn[nH]3)ccc21` [3-(1H-tetrazol-5-yl)-9H-thioxathen-9-one s.s dioxide, reference compound], for which the IC50 was > 100 µM and < 1000 µM.
Take `c1ccc(-c2ccncn2)cc1` [4-phenylpyrimidine]: the IC50 was roughly 100 µM.
Same read-out and setting: next, `CC(C)Oc1ccc2oc3ccc(C(=O)O)cc3c(=O)c2c1` [7-(1-methylethoxy)-9-oxo-9H-xanthene-2-carboxylic acid]: greater than 1000 µM.
Regarding `Cc1ccc2c(-c3ccccc3)nc(=O)n(C(C)C)c2c1` [7-methyl-1-(1-methylethyl)-4-phenyl-2(1H)-quinazolinone, reference compound], the IC50 is greater than 1000 µM.

A further experiment addresses T2, thromboxane synthase (Human Platelet Microsomes) (Homo sapiens, UniProt P24557).
T2 construct: Platelets were obtained from 320 ml of whole blood and resuspended in 5.0 ml of Krebs-Hensleit buffer; from tissue; host or cells: human platelets (microsomes, 110,000 g pellet)
T2 sequence (P24557 1-533): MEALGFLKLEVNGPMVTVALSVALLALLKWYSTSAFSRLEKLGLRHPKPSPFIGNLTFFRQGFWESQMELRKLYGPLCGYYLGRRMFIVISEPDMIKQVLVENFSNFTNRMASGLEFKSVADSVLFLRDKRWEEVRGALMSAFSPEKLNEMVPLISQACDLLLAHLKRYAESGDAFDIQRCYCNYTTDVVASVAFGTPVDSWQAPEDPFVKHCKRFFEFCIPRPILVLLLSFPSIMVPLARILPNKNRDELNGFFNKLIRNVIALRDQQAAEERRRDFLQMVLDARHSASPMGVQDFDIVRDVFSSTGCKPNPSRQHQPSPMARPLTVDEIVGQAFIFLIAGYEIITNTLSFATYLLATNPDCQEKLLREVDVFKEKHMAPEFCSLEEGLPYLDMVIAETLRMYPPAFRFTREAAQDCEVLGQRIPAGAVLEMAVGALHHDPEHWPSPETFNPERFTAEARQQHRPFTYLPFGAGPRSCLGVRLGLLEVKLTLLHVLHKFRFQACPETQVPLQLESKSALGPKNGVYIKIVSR
Nature of the experiment: Thromboxane synthase inhibition, human platelet microsomes. The experiment is classed as biochemical. The following applies: IC50, enzyme source H = Human Platelet Microsomes. As for the experimental part: In said assay procedure, microsomes from guinea pig lung or human platelets are added to an endoperoxide intermediate in prostaglandin biosynthesis and the inhibitor in phosphate buffer solution followed by incubation, extraction and determination of the extent of thromboxane synthase inhibition by TLC with radiochromatographic profile analysis.
(§6) Determination of Inhibition of Thromboxane Synthase Activity Isolation of Human Platelet Microsomes
Platelets were obtained from 320 ml of whole blood and resuspended in 5.0 ml of Krebs-Hensleit buffer (CA^+2 free). After three consecutive freeze-thawing cycles, homogenization and centrifugation at 12,000 g for 45 min., the 12,000 supernatant was recentrifuged at 110,000 g for 60 min. The resultant pellet was resuspended in phosphate buffer (0.5 ml, 0.1M, pH 7.5) and stored at -70° until use.
as §1, §2, §3, §4, §5
Take `c1ccc(Cn2ccnc2)cc1` [1-(phenylmethyl)-1H--imidazole]: the IC50 lay within 10 to 100 µM.
On the same count and under the same terms, next, `Clc1ccccc1C(c1ccccc1)(c1ccccc1)n1ccnc1` [1-[(2-chlorophenyl)diphenylmethyl]-1H--imidazole, reference compound]: 10 to 100 µM.

Still in this experiment, the particulars now being: enzyme source H = Human Platelet Microsomes; read-out: IC50.
`CCOc1ccc(-n2ccnc2)cc1` [1-(4-ethoxyphenyl)-1H--imidazole]: the 50% inhibitory concentration (IC50) was roughly 10 µM.
Same read-out and setting: for `COc1ccc(-n2ccnc2)cc1` [1-(4-methoxyphenyl)-1H--imidazole] the value was 10 to 100 µM.
Still for that read-out and setting: next, `OC[C@H]1O[C@@H](n2ccnc2)[C@H](O)[C@@H](O)[C@@H]1O` [1-(beta-D-glucopyranosyl)-1H--imidazole]: 10 to 100 µM; `CC(=O)n1ccnc1` [1-acetyl-1H--imidazole]: roughly 1000 µM; `CCCCn1ccnc1` [1-butyl-1H--imidazole]: roughly 10 µM.
On to `CC(C)(C(=O)c1cccnc1)c1cccnc1` [2-methyl-1,2-di-3-pyridyl-1-propanone tartrate [1:2], reference compound], for which the IC50 was > 100 µM and < 1000 µM.
With `Oc1cccc(-n2ccnc2)c1` [3-(1H--imidazol-1-yl)phenol], the IC50 is 1 to 10 µM.
On the same count and under the same terms, for `Oc1ccc(-n2ccnc2)cc1` [4-(1H--imidazol-1-yl)phenol, 4-(1H-imidazol-1-yl)phenol] the value was roughly 1 µM.
Regarding `CC(C)Oc1ccc2oc3ccc(C(=O)O)cc3c(=O)c2c1` [7-(1-methylethoxy)-9-oxo-9H-xanthene-2-carboxylic acid], the IC50 was greater than 1000 µM.
For `CCOC(=O)C(=O)Cc1ccncn1` [Alpha-oxo-4-pyrimidinepropanoic acid ethyl ester], the IC50 is > 100 µM and < 1000 µM.
Regarding `N[C@@H]1C(=O)N2C(C(=O)O)=C(CSc3ccncn3)CS[C@H]12` [[6R--(6α,7β)]-2-carboxy-8-oxo-3-[(4-pyrimidinylthio)-methyl]5-thia-1-azabicyclo-[4.2.0]oct-2-en-7-aminum hydroxide inner salt], the IC50 is > 100 µM and < 1000 µM.
On the same count and under the same terms, next, `O=C(NN=Cc1c(O)ccc2ccccc12)c1cccnc1` [[(2-hydroxy-1-naphthalenyl)methylene]hydrazide 3-pyridinecarboxylic acid]: roughly 100 µM.

A further experiment has as its system isolated perfused rat pancreas. Nature of the experiment: Insulin secretion by isolated perfused rat pancreas. More on the design: key: insulin AUC ratio: 1st glucose pulse / 2nd pulse with compound. The following applies: 10 μM; 16.7 mM glucose; control 1.0 ± 0.04 (n = 5). As for the experimental part:
Determination of Insulin-Secretory Activity in the Isolated Perfused Rat Pancreas
Pancreata were obtained from young adult female Charles River rats weighing from 200-300 g. The animals were anaesthesized with sodium pentobarbitol (45 mg/kg), injected intraperitoneally, and the pancreas with its intact vasculature was removed and connected to an extracorporeal perfusion apparatus.
The basic perfusion solution contained: 133 mM NaCl, 4.4 mM KCl, 2.5 mM MgSO4, 2.4 mM Ca gluconate, 1.5 mM KH2 PO4, 29.4 mM NaHCO3, 4% dextran and 0.2% bovine serum albumin and glucose as discussed below. The perfusion flow rate was kept constant at 4 ml/min. After a 15-20 min equilibration period, the experimental protocol was begun. The pancreatic effluent was collected in either one or four-minute fractions.
The perfusion was run in the following sequence:
30 min 16.7 mM glucose-internal control
30 min 16.7 mM glucose and test compound
5 min 20 mM arginine-to check pancreas viability
Test compounds were dissolved in 90% ethanol to a concentration of 25 mM and then diluted in the perfusion buffer to the desired concentration. The perfusion effluent was collected in one or four min fractions-the samples were checked immediately, aliquoted for submission to radioimmunoassay and stored at -20° C. until the time of assay. The radioimmunoassay of insulin was carried out by a back-titration method using a pure rat insulin standard.
To assess the inhibitory activity of the test compounds, an inhibition index was calculated. The inhibition index is derived by comparing the insulin secretion response from treated versus nontreated pancreas preparations. For each preparation, a ratio of insulin secretion was calculated from the area under the insulin secretion curve of the first pulse of 16.7 mM glucose divided by the area under the curve of the second pulse of 16.7 mM glucose containing compound.
Consider `Oc1ccc(-n2ccnc2)cc1` [4-(1H--imidazol-1-yl)phenol, 4-(1H-imidazol-1-yl)phenol], for which the “Insulin Secretion Inhibition Index” value came to 2.

For the next experiment, the target named is TXA2 Synthase. Nature of the experiment: TXA2 synthase IC50 as listed in Table I (enzyme source not stated). The experiment is classed as biochemical.
Conditions: not given
As for the experimental part: as §6, §3, §4, §5
As to `Oc1ccc(-n2ccnc2)cc1` [4-(1H--imidazol-1-yl)phenol, 4-(1H-imidazol-1-yl)phenol], half-maximal inhibition (IC50) was put at 1 µM.
